{"source": "patent US4032659A", "about": "(priority 1975, dated 1977)", "key": {"[1]": {"system": "Influenza B Massachusetts virus", "assay": "Chemoprophylaxis of Influenza B Massachusetts virus infection in mice", "format": "in vivo, mouse", "details": "oral", "method": "The activity of four compounds on Influenza B Mass. was tested in mice.\nA portion of a commercially available sample of amantadine was recrystallized from isopropanol. The activity of the material against Influenza B Mass. was tested for the sample as obtained, the recrystallized portion, and the mother liquor obtained from recrystallizing the portion."}, "virus infections": {"system": "virus infections", "assay": "Antiviral screening program, several viruses", "details": "mouse, in vivo"}, "[2]": {"system": "Influenza Ann Arbor virus", "assay": "Chemoprophylaxis of Influenza Ann Arbor (A1) virus infection in mice", "format": "in vivo, mouse", "details": "oral"}, "Influenza PR 8 virus": {"system": "Influenza PR 8 virus", "assay": "Chemoprophylaxis of Influenza PR 8 virus infection in mice", "format": "in vivo, mouse", "details": "oral"}, "Herpes virus [3]": {"system": "Herpes virus", "format": "in vivo, mouse"}, "Herpes virus [4]": {"system": "Herpes virus", "assay": "Herpes virus in eggs (chick embryo survival)", "format": "in vivo, chicken eggs", "details": "all doses"}}, "note": "“And” between values parts separate entries of the source, which are not always exact repeats. Identical values can stand only once. “Also recorded” adds a separate entry of the source. Counter-ions that a name gives are not always drawn. Like-named read-outs stand apart in the source and are kept apart here.", "data": [{"compound": "NNC(=O)c1ccncc1", "note": "[Isoniazid, isoniazid, reference compound]", "values": [{"measurement": "No. animals surviving after 5 days", "setting": "[1]; total dose .000005 μg", "value": 3}, {"measurement": "No. animals surviving when 100% controls are dead", "setting": "[1]; total dose .000005 μg", "value": 0}, {"measurement": "Survivors", "setting": "[1]; total dose .000005 μg", "value": 0}, {"measurement": "No. animals surviving after 5 days", "setting": "[1]; total dose .00005 μg", "value": 2}, {"measurement": "No. animals surviving when 100% controls are dead", "setting": "[1]; total dose .00005 μg", "value": 1}, {"measurement": "Survivors", "setting": "[1]; total dose .00005 μg", "value": 0}, {"measurement": "No. animals surviving after 5 days", "setting": "[1]; total dose .0005 μg", "value": 3}, {"measurement": "No. animals surviving when 100% controls are dead", "setting": "[1]; total dose .0005 μg", "value": 2}, {"measurement": "Survivors", "setting": "[1]; total dose .0005 μg", "value": 0}, {"measurement": "No. animals surviving after 5 days", "setting": "[1]; total dose .005 μg", "value": 5}, {"measurement": "No. animals surviving when 100% controls are dead", "setting": "[1]; total dose .005 μg", "value": 1}, {"measurement": "Survivors", "setting": "[1]; total dose .005 μg", "value": 0}, {"measurement": "No. animals surviving after 5 days", "setting": "[1]; total dose .05 μg", "value": 3}, {"measurement": "No. animals surviving when 100% controls are dead", "setting": "[1]; total dose .05 μg", "value": 1}, {"measurement": "Survivors", "setting": "[1]; total dose .05 μg", "value": 0}, {"measurement": "No. animals surviving after 5 days", "setting": "[1]; total dose .5 μg", "value": 3}, {"measurement": "No. animals surviving when 100% controls are dead", "setting": "[1]; total dose .5 μg", "value": 0}, {"measurement": "Survivors", "setting": "[1]; total dose .5 μg", "value": 0}, {"measurement": "activity (in words)", "setting": "virus infections", "value": "active against Influenza PR 8, Influenza Ann Arbor, Influenza B Mass., and Herpes virus"}, {"measurement": "Survivors", "setting": "[2]; total dose .005 μg", "value": 2}, {"measurement": "Survivors", "setting": "[2]; total dose .05 μg", "value": "2 and 1"}, {"measurement": "Survivors", "setting": "[2]; total dose .5 μg", "value": "2 and 1"}, {"measurement": "No. animals surviving after 7 days", "setting": "Influenza PR 8 virus; total dose 5 μg", "value": 5}, {"measurement": "Survivors", "setting": "Influenza PR 8 virus; total dose 5 μg", "value": 2}, {"measurement": "No. animals surviving after 7 days", "setting": "Influenza PR 8 virus; total dose .0000005 μg", "value": 1}, {"measurement": "Survivors", "setting": "Influenza PR 8 virus; total dose .0000005 μg", "value": 0}, {"measurement": "No. animals surviving after 7 days", "setting": "Influenza PR 8 virus; total dose .000005 μg", "value": 2}, {"measurement": "Survivors", "setting": "Influenza PR 8 virus; total dose .000005 μg", "value": 0}, {"measurement": "No. animals surviving after 7 days", "setting": "Influenza PR 8 virus; total dose .00005 μg", "value": 0}, {"measurement": "Survivors", "setting": "Influenza PR 8 virus; total dose .00005 μg", "value": 0}, {"measurement": "No. animals surviving after 7 days", "setting": "Influenza PR 8 virus; total dose .0005 μg", "value": 0}, {"measurement": "Survivors", "setting": "Influenza PR 8 virus; total dose .0005 μg", "value": 0}, {"measurement": "No. animals surviving after 7 days", "setting": "Influenza PR 8 virus; total dose .005 μg", "value": 1}, {"measurement": "Survivors", "setting": "Influenza PR 8 virus; total dose .005 μg", "value": 1}, {"measurement": "No. animals surviving after 7 days", "setting": "Influenza PR 8 virus; total dose .05 μg", "value": 2}, {"measurement": "Survivors", "setting": "Influenza PR 8 virus; total dose .05 μg", "value": 1}, {"measurement": "No. animals surviving after 7 days", "setting": "Influenza PR 8 virus; total dose .5 μg", "value": 2}, {"measurement": "Survivors", "setting": "Influenza PR 8 virus; total dose .5 μg", "value": 1}, {"measurement": "No. animals surviving after 6 days", "setting": "Herpes virus [3]; mouse, in vivo, po", "value": "2 and 1"}, {"measurement": "Survivors", "setting": "Herpes virus [3]; oral, total dose .0000005 μg", "value": 1}, {"measurement": "No. animals surviving when 17/20 controls are dead", "setting": "Herpes virus [3]; oral, total dose .000005 μg", "value": 3}, {"measurement": "No. animals surviving after 6 days", "setting": "Herpes virus [3]; oral, total dose .00005 μg", "value": 0}, {"measurement": "No. animals surviving when 17/20 controls are dead", "setting": "Herpes virus [3]; oral, total dose .00005 μg", "value": 3}, {"measurement": "No. animals surviving after 6 days", "setting": "Herpes virus [3]; oral, total dose .0005 μg", "value": 3}, {"measurement": "No. animals surviving when 17/20 controls are dead", "setting": "Herpes virus [3]; oral, total dose .0005 μg", "value": 0}, {"measurement": "No. animals surviving when 17/20 controls are dead", "setting": "Herpes virus [3]; oral, total dose .005 μg", "value": 2}, {"measurement": "No. animals surviving when 17/20 controls are dead", "setting": "Herpes virus [3]; oral, total dose .05 μg", "value": 1}, {"measurement": "Survivors", "setting": "Herpes virus [3]; oral, total dose .05 μg", "value": 1}]}, {"compound": "NNc1nncc2ccccc12", "note": "[Hydralazine, hydralazine, reference compound]", "values": [{"measurement": "activity (in words)", "setting": "virus infections", "value": "effective against Herpes virus"}]}, {"compound": "NN", "note": "[hydrazine]", "values": [{"measurement": "No. Living Longer Than Controls, total", "setting": "Herpes virus [4]", "value": 3}, {"measurement": "No. animals surviving after 7 days", "setting": "Herpes virus [3]; oral, total dose 5 μg", "value": 7}, {"measurement": "No. animals surviving after 7 days", "setting": "Herpes virus [3]; oral, total dose .0005 μg", "value": 5}, {"measurement": "No. animals surviving when 19/20 controls are dead", "setting": "Herpes virus [3]; oral, total dose .0005 μg", "value": 5}, {"measurement": "No. animals surviving after 7 days", "setting": "Herpes virus [3]; oral, total dose .005 μg", "value": 6}, {"measurement": "No. animals surviving when 19/20 controls are dead", "setting": "Herpes virus [3]; oral, total dose .005 μg", "value": 3}, {"measurement": "No. animals surviving after 7 days", "setting": "Herpes virus [3]; oral, total dose .05 μg", "value": 5}, {"measurement": "No. animals surviving after 7 days", "setting": "Herpes virus [3]; oral, total dose .5 μg", "value": 6}, {"measurement": "No. animals surviving when 19/20 controls are dead", "setting": "Herpes virus [3]; oral, total dose .5 μg", "value": 1}]}, {"compound": "NNC(N)=O", "note": "[semicarbazide, hydrochloride]", "values": [{"measurement": "activity (in words)", "setting": "virus infections", "value": "effective against Influenza PR 8 virus, Vaccinia virus in the mouse tail, Herpes virus in eggs, Herpes virus in mice, Neurovaccinia, and Influenza Ann Arbor virus"}, {"measurement": "No. animals surviving when 19/20 controls are dead", "setting": "Herpes virus [3]; oral, total dose 5 μg", "value": 4}, {"measurement": "No. animals surviving when 19/20 controls are dead", "setting": "Herpes virus [3]; oral, total dose .05 μg", "value": 4}]}, {"compound": "NN.O=S(=O)(O)O", "note": "[Hydrazine Sulfate, hydrazine sulfate]", "values": [{"measurement": "Survivors", "setting": "Herpes virus [3]; oral, total dose 5 μg", "value": 2}, {"measurement": "Survivors", "setting": "Herpes virus [3]; oral, total dose .0005 μg", "value": 3}, {"measurement": "Survivors", "setting": "Herpes virus [3]; oral, total dose .005 μg", "value": 4}, {"measurement": "Survivors", "setting": "Herpes virus [3]; oral, total dose .05 μg", "value": 0}, {"measurement": "Survivors", "setting": "Herpes virus [3]; oral, total dose .5 μg", "value": 1}]}, {"compound": "N-hydroxyphthalamide", "values": [{"measurement": "activity (in words)", "setting": "virus infections", "value": "active in the practice of this invention"}]}, {"compound": "CNN", "note": "[Methylhydrazine, methylhydrazine]", "values": [{"measurement": "No. animals surviving after 6 days", "setting": "[2]; total dose 30 pg", "value": 2}, {"measurement": "Survivors", "setting": "[2]; total dose 30 pg", "value": 1}, {"measurement": "No. animals surviving after 6 days", "setting": "[2]; total dose 300 pg", "value": 3}, {"measurement": "Survivors", "setting": "[2]; total dose 300 pg", "value": 0}, {"measurement": "No. animals surviving after 6 days", "setting": "[2]; total dose 3 ng", "value": 3}, {"measurement": "Survivors", "setting": "[2]; total dose 3 ng", "value": 1}, {"measurement": "No. animals surviving after 6 days", "setting": "[2]; total dose 30 ng", "value": 4}, {"measurement": "Survivors", "setting": "[2]; total dose 30 ng", "value": 1}, {"measurement": "No. animals surviving after 6 days", "setting": "[2]; total dose 300 ng", "value": 1}, {"measurement": "Survivors", "setting": "[2]; total dose 300 ng", "value": 0}, {"measurement": "No. animals surviving after 6 days", "setting": "[2]; total dose 3 μg", "value": 3}, {"measurement": "Survivors", "setting": "[2]; total dose 3 μg", "value": 0}, {"measurement": "No. animals surviving after 6 days", "setting": "[2]; total dose 30 μg", "value": 3}, {"measurement": "Survivors", "setting": "[2]; total dose 30 μg", "value": 1}, {"measurement": "No. animals surviving after 6 days", "setting": "[2]; total dose 300 μg", "value": 1}, {"measurement": "Survivors", "setting": "[2]; total dose 300 μg", "value": 0}, {"measurement": "Toxicity", "setting": "[2]; total dose 3 mg", "value": "Toxic; also recorded: Toxic?"}]}]}
